# Measurements reported in PubChem BioAssay AID1963975 (Molecular Pharmacology Branch, DTP, NCI, 2024).
# System: 624824-186-R-J2-PDC multicell spheroids, viability
# Assay: Anticancer human tumor 624824-186-R-J2-PDC patient-derived colon adenocarcinoma cell line growth inhibition [PI3K]
# Settings: for IC50: curve of first compound; for viability, T/C: stronger effect = lower value
# In short: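 Stroma-containing spheroids: tumor line, pooled-donor HUVEC, hMSC. Treatments: targeted agents with PI3K inhibitors. Dosing: clinically relevant, half-log spacing, 10 microM ceiling without known Cmax. Read-out: cell viability.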
# [1] = second compound 0.00316 µM, first compound 0.0316 µM
# [2] = second compound 0.00316 µM, first compound 0.1 µM
# [3] = second compound 0.00316 µM, first compound 0.316 µM
# [4] = second compound 0.00316 µM, first compound 1 µM
# [5] = second compound 0.00316 µM, first compound 3.16 µM
# [6] = second compound 0.00316 µM, first compound 10 µM
# [7] = second compound 0.01 µM, first compound 0.0316 µM
# [8] = second compound 0.01 µM, first compound 0.1 µM
# [9] = second compound 0.01 µM, first compound 0.316 µM
# [10] = second compound 0.01 µM, first compound 1 µM
# [11] = second compound 0.01 µM, first compound 3.16 µM
# [12] = second compound 0.01 µM, first compound 10 µM
# [13] = second compound 0.0316 µM, first compound 0.0316 µM
# [14] = second compound 0.0316 µM, first compound 0.1 µM
# [15] = second compound 0.0316 µM, first compound 0.316 µM
# [16] = second compound 0.0316 µM, first compound 1 µM
# [17] = second compound 0.0316 µM, first compound 3.16 µM
# [18] = second compound 0.0316 µM, first compound 10 µM
# [19] = second compound 0.1 µM, first compound 0.0316 µM
# [20] = second compound 0.1 µM, first compound 0.1 µM
# [21] = second compound 0.1 µM, first compound 0.316 µM
# [22] = second compound 0.1 µM, first compound 1 µM
# [23] = second compound 0.1 µM, first compound 3.16 µM
# [24] = second compound 0.1 µM, first compound 10 µM
# [25] = second compound 0.316 µM, first compound 0.0316 µM
# [26] = second compound 0.316 µM, first compound 0.1 µM
# [27] = second compound 0.316 µM, first compound 0.316 µM
# [28] = second compound 0.316 µM, first compound 1 µM
# [29] = second compound 0.316 µM, first compound 3.16 µM
# [30] = second compound 0.316 µM, first compound 10 µM
# [31] = second compound 1 µM, first compound 0.0316 µM
# [32] = second compound 1 µM, first compound 0.1 µM
# [33] = second compound 1 µM, first compound 0.316 µM
# [34] = second compound 1 µM, first compound 1 µM
# [35] = second compound 1 µM, first compound 3.16 µM
# [36] = second compound 1 µM, first compound 10 µM
# 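Also: spheroids exposed to agents for 7 days before viability read.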
# 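For viability, T/C in this document: 100% = DMSO vehicle treated spheroids.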
smiles,measurement,setting,value
C#Cc1c(F)ccc2cc(O)cc(-c3ncc4c(N5CC6CCC(C5)N6)nc(OCC56CCCN5CC(F)C6)nc4c3F)c12 (stereo not given) + CC(Nc1ccc2c(c1)OCCn1cc(N3C(=O)OCC3C(F)F)nc1-2)C(N)=O,IC50,second compound 0.00316 µM,> 10 µM
same,IC50,second compound 0.01 µM,> 10 µM
same,IC50,second compound 0.0316 µM,> 10 µM
same,IC50,second compound 0.1 µM,> 10 µM
same,IC50,second compound 0.316 µM,> 10 µM
same,IC50,second compound 1 µM,> 10 µM
same,"viability, T/C",[1],90%
same,"viability, T/C",[2],98.3%
same,"viability, T/C",[3],123%
same,"viability, T/C",[4],87.4%
same,"viability, T/C",[5],105%
same,"viability, T/C",[6],106%
same,"viability, T/C",[7],116%
same,"viability, T/C",[8],103%
same,"viability, T/C",[9],82.6%
same,"viability, T/C",[10],89%
same,"viability, T/C",[11],94.9%
same,"viability, T/C",[12],86.5%
same,"viability, T/C",[13],91.6%
same,"viability, T/C",[14],116%
same,"viability, T/C",[15],79.2%
same,"viability, T/C",[16],102%
same,"viability, T/C",[17],106%
same,"viability, T/C",[18],82.2%
same,"viability, T/C",[19],121%
same,"viability, T/C",[20],88.1%
same,"viability, T/C",[21],80.6%
same,"viability, T/C",[22],82.5%
same,"viability, T/C",[23],93.3%
same,"viability, T/C",[24],100%
same,"viability, T/C",[25],101%
same,"viability, T/C",[26],76.2%
same,"viability, T/C",[27],79%
same,"viability, T/C",[28],85.1%
same,"viability, T/C",[29],86.8%
same,"viability, T/C",[30],81.8%
same,"viability, T/C",[31],78.1%
same,"viability, T/C",[32],80.3%
same,"viability, T/C",[33],82%
same,"viability, T/C",[34],94.4%
same,"viability, T/C",[35],93.2%
same,"viability, T/C",[36],91.1%
C=CC(=O)N1CCN(c2nc(=O)n(-c3c(C)ccnc3C(C)C)c3nc(-c4c(O)cccc4F)c(F)cc23)C(C)C1 (stereo not given) + CC(Nc1ccc2c(c1)OCCn1cc(N3C(=O)OCC3C(F)F)nc1-2)C(N)=O,IC50,second compound 0.00316 µM,> 10 µM
same,IC50,second compound 0.01 µM,> 10 µM
same,IC50,second compound 0.0316 µM,> 10 µM
same,IC50,second compound 0.1 µM,> 10 µM
same,IC50,second compound 0.316 µM,> 10 µM
same,IC50,second compound 1 µM,> 10 µM
same,"viability, T/C",[1],103%
same,"viability, T/C",[2],88.3%
same,"viability, T/C",[3],94.2%
same,"viability, T/C",[4],97.8%
same,"viability, T/C",[5],117%
same,"viability, T/C",[6],110%
same,"viability, T/C",[7],92.6%
same,"viability, T/C",[8],88%
same,"viability, T/C",[9],88.3%
same,"viability, T/C",[10],87.7%
same,"viability, T/C",[11],80.3%
same,"viability, T/C",[12],96.9%
same,"viability, T/C",[13],109%
same,"viability, T/C",[14],92.3%
same,"viability, T/C",[15],105%
same,"viability, T/C",[16],87.3%
same,"viability, T/C",[17],101%
same,"viability, T/C",[18],85.4%
same,"viability, T/C",[19],112%
same,"viability, T/C",[20],82.1%
same,"viability, T/C",[21],106%
same,"viability, T/C",[22],104%
same,"viability, T/C",[23],81.2%
same,"viability, T/C",[24],103%
same,"viability, T/C",[25],83.3%
same,"viability, T/C",[26],104%
same,"viability, T/C",[27],107%
same,"viability, T/C",[28],84.1%
same,"viability, T/C",[29],88.7%
same,"viability, T/C",[30],79.2%
same,"viability, T/C",[31],90.7%
same,"viability, T/C",[32],90%
same,"viability, T/C",[33],81.1%
same,"viability, T/C",[34],92.4%
same,"viability, T/C",[35],85.6%
same,"viability, T/C",[36],78%
CC(Cn1ccc(-c2ccc(C#N)c(Cl)c2)n1)NC(=O)c1cc(C(C)O)[nH]n1 (stereo not given) + CC(Nc1ccc2c(c1)OCCn1cc(N3C(=O)OCC3C(F)F)nc1-2)C(N)=O,IC50,second compound 0.00316 µM,> 10 µM
same,IC50,second compound 0.01 µM,> 10 µM
same,IC50,second compound 0.0316 µM,> 10 µM
same,IC50,second compound 0.1 µM,> 10 µM
same,IC50,second compound 0.316 µM,> 10 µM
same,IC50,second compound 1 µM,> 10 µM
same,"viability, T/C",[1],86.5%
same,"viability, T/C",[2],102%
same,"viability, T/C",[3],108%
same,"viability, T/C",[4],103%
same,"viability, T/C",[5],107%
same,"viability, T/C",[6],127%
same,"viability, T/C",[7],124%
same,"viability, T/C",[8],88.3%
same,"viability, T/C",[9],88.5%
same,"viability, T/C",[10],97.7%
same,"viability, T/C",[11],99.5%
same,"viability, T/C",[12],116%
same,"viability, T/C",[13],77.1%
same,"viability, T/C",[14],79.6%
same,"viability, T/C",[15],83.1%
same,"viability, T/C",[16],93.9%
same,"viability, T/C",[17],108%
same,"viability, T/C",[18],104%
same,"viability, T/C",[19],81.5%
same,"viability, T/C",[20],77.9%
same,"viability, T/C",[21],76.9%
same,"viability, T/C",[22],82.1%
same,"viability, T/C",[23],93.2%
same,"viability, T/C",[24],103%
same,"viability, T/C",[25],76.7%
same,"viability, T/C",[26],91.1%
same,"viability, T/C",[27],103%
same,"viability, T/C",[28],69.4%
same,"viability, T/C",[29],83.4%
same,"viability, T/C",[30],95.9%
same,"viability, T/C",[31],87.9%
same,"viability, T/C",[32],76%
same,"viability, T/C",[33],88.2%
same,"viability, T/C",[34],94%
same,"viability, T/C",[35],76.4%
same,"viability, T/C",[36],95.9%
CC1(C)CCC(Nc2ncc(C(F)(F)F)c(-c3c[nH]c4c(P(C)(C)=O)c(C#N)ccc34)n2)CN1 (stereo not given) + CC(Nc1ccc2c(c1)OCCn1cc(N3C(=O)OCC3C(F)F)nc1-2)C(N)=O,IC50,second compound 0.00316 µM,3.92 µM
same,IC50,second compound 0.01 µM,3.61 µM
same,IC50,second compound 0.0316 µM,4.16 µM
same,IC50,second compound 0.1 µM,3.16 µM
same,IC50,second compound 0.316 µM,3.46 µM
same,IC50,second compound 1 µM,3.23 µM
same,"viability, T/C",[1],73.8%
same,"viability, T/C",[2],84.7%
same,"viability, T/C",[3],86.4%
same,"viability, T/C",[4],98.7%
same,"viability, T/C",[5],59.7%
same,"viability, T/C",[6],7.81%
same,"viability, T/C",[7],71.8%
same,"viability, T/C",[8],70.3%
same,"viability, T/C",[9],85%
same,"viability, T/C",[10],99.8%
same,"viability, T/C",[11],55.6%
same,"viability, T/C",[12],7.27%
same,"viability, T/C",[13],66.1%
same,"viability, T/C",[14],72.4%
same,"viability, T/C",[15],93.3%
same,"viability, T/C",[16],108%
same,"viability, T/C",[17],63.9%
same,"viability, T/C",[18],5.65%
same,"viability, T/C",[19],74.4%
same,"viability, T/C",[20],85.3%
same,"viability, T/C",[21],87.1%
same,"viability, T/C",[22],105%
same,"viability, T/C",[23],50%
same,"viability, T/C",[24],5.2%
same,"viability, T/C",[25],68.2%
same,"viability, T/C",[26],81.9%
same,"viability, T/C",[27],90.2%
same,"viability, T/C",[28],93.7%
same,"viability, T/C",[29],53.9%
same,"viability, T/C",[30],4.99%
same,"viability, T/C",[31],78.5%
same,"viability, T/C",[32],83.1%
same,"viability, T/C",[33],91.1%
same,"viability, T/C",[34],72.9%
same,"viability, T/C",[35],51.5%
same,"viability, T/C",[36],5.93%
Cn1nccc1Nc1nccc(-c2ccn(C(CO)c3ccc(Cl)c(F)c3)c(=O)c2)n1 (stereo not given) + CC(Nc1ccc2c(c1)OCCn1cc(N3C(=O)OCC3C(F)F)nc1-2)C(N)=O,IC50,second compound 0.00316 µM,> 10 µM
same,IC50,second compound 0.01 µM,> 10 µM
same,IC50,second compound 0.0316 µM,> 10 µM
same,IC50,second compound 0.1 µM,> 10 µM
same,IC50,second compound 0.316 µM,> 10 µM
same,IC50,second compound 1 µM,1.33 µM
same,"viability, T/C",[1],79.4%
same,"viability, T/C",[2],78.9%
same,"viability, T/C",[3],80.1%
same,"viability, T/C",[4],84.7%
same,"viability, T/C",[5],104%
same,"viability, T/C",[6],99.5%
same,"viability, T/C",[7],80.5%
same,"viability, T/C",[8],73.6%
same,"viability, T/C",[9],77.6%
same,"viability, T/C",[10],90.5%
same,"viability, T/C",[11],102%
same,"viability, T/C",[12],116%
same,"viability, T/C",[13],79%
same,"viability, T/C",[14],71.8%
same,"viability, T/C",[15],72%
same,"viability, T/C",[16],91.6%
same,"viability, T/C",[17],86.6%
same,"viability, T/C",[18],93.2%
same,"viability, T/C",[19],87.5%
same,"viability, T/C",[20],61.4%
same,"viability, T/C",[21],68.8%
same,"viability, T/C",[22],95.6%
same,"viability, T/C",[23],84.9%
same,"viability, T/C",[24],59%
same,"viability, T/C",[25],63%
same,"viability, T/C",[26],63.5%
same,"viability, T/C",[27],68.6%
same,"viability, T/C",[28],73.7%
same,"viability, T/C",[29],63.9%
same,"viability, T/C",[30],40.4%
same,"viability, T/C",[31],73.1%
same,"viability, T/C",[32],86.4%
same,"viability, T/C",[33],61%
same,"viability, T/C",[34],52.9%
same,"viability, T/C",[35],42.5%
same,"viability, T/C",[36],29%
